# Reference: patent US20090197880A1 (Genelabs Technologies, Inc., priority 2007, published 2009)
# Test: HCV replicon assay (luciferase) in ET (Huh-lucubineo-ET) cell line
# Type: cell-based
# Settings: Hepatitis C virus; tested at 10 μM; inhibition of replication relative to no compound control; ET replicon cells, luciferase 48-72 hours; read-out: % inhition at 10 μM
row,Compound,inhibition at 10 µM [%]
1,"CCOc1ccc(-c2cc(Cn3cc4nc(-c5cccc(F)c5F)nc-4cn3)on2)cc1 [Compound 220, 2-(2,3-Difluoro-phenyl)-5-[3-(4-ethoxy-phenyl)-isoxazol-5-ylmethyl]-5H-imidazo[4,5-d]pyridazine]",99.7
2,"COc1ccc(-c2cc(Cn3cc4nc(-c5cccc(F)c5F)nc-4cn3)on2)cc1 [Compound 221, 2-(2,3-Difluoro-phenyl)-5-[3-(4-methoxy-phenyl)-isoxazol-5-ylmethyl]-5H-imidazo[4,5-d]pyridazine]",98.9
3,"CCCCOc1ccc(-c2cc(Cn3cc4nc(-c5cccc(F)c5F)nc-4cn3)on2)cc1 [Compound 222, 5-[3-(4-Butoxy-phenyl)-isoxazol-5-ylmethyl]-2-(2,3-difluoro-phenyl)-5H-imidazo[4,5-d]pyridazine]",98.2
4,"CC(c1cc(-c2ccc(C(F)(F)F)cc2C(F)(F)F)no1)n1cc2nc(-c3cccc(F)c3F)nc-2cn1 (stereo not drawn) [Compound 226, 5-{1-[3-(2,4-Bis-trifluoromethyl-phenyl)-isoxazol-5-yl]-ethyl}-2-(2,3-difluoro-phenyl)-5H-imidazo[4,5-d]pyridazine]",99.7
5,"CC(C)(c1cc(-c2ccc(C(F)(F)F)cc2C(F)(F)F)no1)n1cc2nc(-c3cccc(F)c3F)nc-2cn1 [Compound 227, 5-{1-[3-(2,4-Bis-trifluoromethyl-phenyl)-isoxazol-5-yl]-1-methyl-ethyl}-2-(2,3-difluoro-phenyl)-5H-imidazo[4,5-d]pyridazine]",97.9
6,"COc1ccc(-c2noc(Cn3cc4nc(-c5cccc(F)c5F)nc-4cn3)n2)cc1 [Compound 228, 2-(2,3-Difluoro-phenyl)-5-[3-(4-methoxy-phenyl)-[1,2,4]oxadiazol-5-ylmethyl]-5H-imidazo[4,5-d]pyridazine]",40.8
7,"Fc1cccc(-c2nc3cnn(Cc4noc(-c5ccc(C(F)(F)F)cc5)n4)cc-3n2)c1F [Compound 230, 2-(2,3-Difluoro-phenyl)-5-[5-(4-trifluoromethyl-phenyl)-[1,2,4]oxadiazol-3-ylmethyl]-5H-imidazo[4,5-d]pyridazine]",35.8
8,"FC(F)(F)c1ccc(-c2cc(Cn3cc4nc(-c5ccccn5)nc-4cn3)on2)c(C(F)(F)F)c1 [Compound 231, 5-[3-(2,4-Bis-trifluoromethyl-phenyl)-isoxazol-5-ylmethyl]-2-pyridin-2-yl-5H-imidazo[4,5-d]pyridazine]",42
9,"Nc1nn(Cc2cc(-c3ccc(C(F)(F)F)cc3C(F)(F)F)no2)cc2nc(-c3cccc(F)c3F)nc1-2 [Compound 233, 6-[3-(2,4-Bis-trifluoromethyl-phenyl)-isoxazol-5-ylmethyl]-2-(2,3-difluoro-phenyl)-6H-imidazo[4,5-d]pyridazin-4-ylamine]",96.8
10,"CCCOc1ccc(-c2cc(Cn3cc4nc(-c5cccc(F)c5F)nc-4c(N)n3)on2)cc1 [Compound 235, 2-(2,3-Difluoro-phenyl)-6-[3-(4-propoxy-phenyl)-isoxazol-5-ylmethyl]-6H-imidazo[4,5-d]pyridazin-4-ylamine]",56
11,"Nc1nn(Cc2cc(-c3ccc(C(F)(F)F)cc3F)no2)cc2nc(-c3cccc(F)c3F)nc1-2 [Compound 236, 2-(2,3-Difluoro-phenyl)-6-[3-(2-fluoro-4-trifluoromethyl-phenyl)-isoxazol-5-ylmethyl]-6H-imidazo[4,5-d]pyridazin-4-ylamine]",76.8
12,"Nc1nn(Cc2cc(-c3ccc(C(F)(F)F)cc3C(F)(F)F)no2)c(N)c2nc(-c3cccc(F)c3F)nc1-2 [Compound 237, 5-[3-(2,4-Bis-trifluoromethyl-phenyl)-isoxazol-5-ylmethyl]-2-(2,3-difluoro-phenyl)-5H-imidazo[4,5-d]pyridazine-4,7-diamine]",1.73
13,"Fc1ccccc1-c1nc2cnn(Cc3cc(-c4ccc(Cl)cc4)on3)cc-2n1 [Compound 239, 5-[5-(4-Chloro-phenyl)-isoxazol-3-ylmethyl]-2-(2-fluoro-phenyl)-5H-imidazo[4,5-d]pyridazine]",95.3
14,"COc1ccc(-c2nc(Cn3cc4nc(-c5ccccc5F)nc-4cn3)no2)cc1 [Compound 240, 2-(2-Fluoro-phenyl)-5-[5-(4-methoxy-phenyl)-[1,2,4]oxadiazol-3-ylmethyl]-5H-imidazo[4,5-d]pyridazine]",16.4
15,"Fc1cccc(-c2nc3cnn(Cc4cc(-c5ccc(C(F)(F)F)cc5)on4)cc-3n2)c1F [Compound 241, 2-(2,3-Difluoro-phenyl)-5-[5-(4-trifluoromethyl-phenyl)-isoxazol-3-ylmethyl]-5H-imidazo[4,5-d]pyridazine]",99.7
16,"Fc1cccc(-c2nc3cnn(Cc4cc(-c5ccc(OC(F)(F)F)cc5)on4)cc-3n2)c1F [Compound 242, 2-(2,3-Difluoro-phenyl)-5-[5-(4-trifluoromethoxy-phenyl)-isoxazol-3-ylmethyl]-5H-imidazo[4,5-d]pyridazine]",97
17,"CCCOc1ccc(-c2cc(Cn3cc4nc(-c5cccc(F)c5F)nc-4cn3)no2)cc1 [Compound 243, 2-(2,3-Difluoro-phenyl)-5-[5-(4-propoxy-phenyl)-isoxazol-3-ylmethyl]-5H-imidazo[4,5-d]pyridazine]",99.4

row,Compound,inhibition at 10 µM [%]
1,"Fc1cccc(-c2nc3ccn(Cc4cc(-c5ccc(C(F)(F)F)cc5C(F)(F)F)no4)nc-3n2)c1F [Compound 245, 2-[3-(2,4-Bis-trifluoromethyl-phenyl)-isoxazol-5-ylmethyl]-6-(2,3-difluoro-phenyl)-2H-imidazo[4,5-c]pyridazine]",72.8
2,"Fc1cccc(-c2nc3ccn(Cc4cc(-c5ccc(C(F)(F)F)cc5)no4)nc-3n2)c1F [Compound 246, 6-(2,3-Difluoro-phenyl)-2-[3-(4-trifluoromethyl-phenyl)-isoxazol-5-ylmethyl]-2H-imidazo[4,5-c]pyridazine]",62.1
3,"Fc1cc(C(F)(F)F)ccc1-c1cc(Cn2ccc3nc(-c4cccc(F)c4F)nc-3n2)on1 [Compound 247, 6-(2,3-Difluoro-phenyl)-2-[3-(2-fluoro-4-trifluoromethyl-phenyl)-isoxazol-5-ylmethyl]-2H-imidazo[4,5-c]pyridazine]",80
4,"FC(F)(F)c1ccc(-c2cc(Cn3cc4nc(Nc5ccccc5)nc-4cn3)on2)c(C(F)(F)F)c1 [Compound 248, {5-[3-(2,4-Bis-trifluoromethyl-phenyl)-isoxazol-5-ylmethyl]-5H-imidazo[4,5-d]pyridazin-2-yl}-phenyl-amine]",15.5
5,"FC(F)(F)c1ccc(-c2cc(Cn3cc4nc(NCc5ccccc5)nc-4cn3)on2)c(C(F)(F)F)c1 [Compound 251, Benzyl-{5-[3-(2,4-bis-trifluoromethyl-phenyl)-isoxazol-5-ylmethyl]-5H-imidazo[4,5-d]pyridazin-2-yl}-amine]",97.7
6,"Fc1cccc(CNc2nc3cnn(Cc4cc(-c5ccc(C(F)(F)F)cc5C(F)(F)F)no4)cc-3n2)c1F [Compound 255, {5-[3-(2,4-Bis-trifluoromethyl-phenyl)-isoxazol-5-ylmethyl]-5H-imidazo[4,5-d]pyridazin-2-yl}-(2,3-difluoro-benzyl)-amine]",4.67
7,"FC(F)(F)c1ccc(-c2cc(Cn3cc4nc(NCCc5ccccc5)nc-4cn3)on2)c(C(F)(F)F)c1 [Compound 256, {5-[3-(2,4-Bis-trifluoromethyl-phenyl)-isoxazol-5-ylmethyl]-5H-imidazo[4,5-d]pyridazin-2-yl}-phenethyl-amine]",9.34
8,"FC(F)(F)c1ccc(-c2cc(Cn3cc4nc(N5CCc6ccccc6C5)nc-4cn3)on2)c(C(F)(F)F)c1 [Compound 257, 2-{5-[3-(2,4-Bis-trifluoromethyl-phenyl)-isoxazol-5-ylmethyl]-5H-imidazo[4,5-d]pyridazin-2-yl}-1,2,3,4-tetrahydro-isoquinoline]",0.87
9,"CC(Nc1nc2cnn(Cc3cc(-c4ccc(C(F)(F)F)cc4C(F)(F)F)no3)cc-2n1)c1ccccc1 (stereo not drawn) [Compound 258, {5-[3-(2,4-Bis-trifluoromethyl-phenyl)-isoxazol-5-ylmethyl]-5H-imidazo[4,5-d]pyridazin-2-yl}-(1-phenyl-ethyl)-amine]",40
10,FC(F)(F)c1ccc(-c2cc(Cn3cc4nc(NC5CCc6ccccc65)nc-4cn3)on2)c(C(F)(F)F)c1 (stereo not drawn) [Compound 259],50.6
11,"FC(F)(F)c1ccc(-c2cc(Cn3cc4nc(NC5CCCc6ccccc65)nc-4cn3)on2)c(C(F)(F)F)c1 (stereo not drawn) [Compound 260, {5-[3-(2,4-Bis-trifluoromethyl-phenyl)-isoxazol-5-ylmethyl]-5H-imidazo[4,5-d]pyridazin-2-yl}-(1,2,3,4-tetrahydro-naphthalen-1-yl)-amine]",53.2
12,"FC(F)(F)c1ccc(-c2cc(Cn3cc4nc(N5Cc6ccccc6C5)nc-4cn3)on2)c(C(F)(F)F)c1 [Compound 261, 5-[3-(2,4-Bis-trifluoromethyl-phenyl)-isoxazol-5-ylmethyl]-2-(1,3-dihydro-isoindol-2-yl)-5H-imidazo[4,5-d]pyridazine]",73.9
13,"Oc1nn(Cc2cc(-c3ccc(C(F)(F)F)cc3C(F)(F)F)no2)cc2nc(-c3cccc(F)c3F)nc1-2 [Compound 262, 6-[3-(2,4-Bis-trifluoromethyl-phenyl)-isoxazol-5-ylmethyl]-2-(2,3-difluoro-phenyl)-6H-imidazo[4,5-d]pyridazin-4-ol]",96.6
14,"COc1ccc(-c2cc(Cn3cc4nc(-c5cccc(F)c5F)nc-4cn3)on2)c(C(=O)O)c1 [Compound 266, 2-{5-[2-(2,3-Difluoro-phenyl)-imidazo[4,5-d]pyridazin-5-ylmethyl]-isoxazol-3-yl}-5-methoxy-benzoic Acid]",10
15,"COc1ccc(-c2ccc(-c3cc(Cn4cc5nc(-c6cccc(F)c6F)nc-5cn4)on3)cc2)cc1 [Compound 268, 2-(2,3-Difluoro-phenyl)-5-[3-(4′-methoxy-biphenyl-4-yl)-isoxazol-5-ylmethyl]-5H-imidazo[4,5-d]pyridazine]",93.7
16,"CCCOc1ccc(-c2ccc(-c3cc(Cn4cc5nc(-c6cccc(F)c6F)nc-5cn4)on3)cc2)cc1 [Compound 269, 2-(2,3-Difluoro-phenyl)-5-[3-(4′-propoxy-biphenyl-4-yl)-isoxazol-5-ylmethyl]-5H-imidazo[4,5-d]pyridazine]",36.6
